pIC50: −log10 of the molar value. In brackets after ≈: the same amount, converted by molar mass.
How the values were obtained:
[1] = molecular target: KRAS G12C (GMPPNP-loaded) and cRAF (Ras-binding domain) interaction (Homo sapiens (Human), UniProt P01116, C118S/C51S/C80L/G12C); assay: Inhibition of KRAS G12C and cRAF binding (AlphaScreen); settings: KRAS G12C loaded with GMPPNP, cRaf RBD, 2 hours preincubation; read-out: Raf-1 RBD K-Ras IC50
Summary of the method: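 GMPPNP-loaded KRAS G12C in 25 mM Hepes pH 7.4, 150 mM NaCl, 5 mM MgCl2, 0.01% Triton X-100, 10 μM GMPPNP, 2% DMSO, preincubated with compound 2 h at room temperature. cRAF RBD plus AlphaScreen beads then added for 60-90 min; signal read at 570 nm.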

[2] = molecular target: KRAS G12C (GMPPNP-loaded) and PI3Ka (Ras-binding domain) interaction (Homo sapiens (Human), UniProt P01116, C118S/C51S/C80L/G12C); assay: Inhibition of KRAS G12C and PI3Ka binding (AlphaScreen); settings: KRAS G12C loaded with GMPPNP, PI3Ka RBD, 2 hours preincubation; read-out: PI3K RBD K-Ras IC50
Summary of the method: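 Biotin-AviTag Cys-light KRAS G12C (aa 1-169, C51S/C80L/C118S), GMPPNP-loaded, 1.5 nM, preincubated 2 h with compound, then His-tagged PI3Ka RBD (aa 157-300, 100 nM) plus AlphaScreen beads added for 60-90 min, RT. Buffer Hepes pH 7.4, 10 μM GMPPNP, 2% DMSO; 10-point 1:3 from 50 μM; 4-parameter IC50.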

[3] = Determination of logD (1-octanol / phosphate buffer pH 7.4); type: physicochemical; settings: 1-octanol/phosphate buffer, pH 7.4, pH 7.4, 1-octanol/phosphate buffer; read-out: Log D, pH 7.4
Summary of the method: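 Shake-flask partition between 1-octanol and 100 mM phosphate buffer pH 7.4, each phase presaturated with the other overnight. Tubes shaken 1 h at 800 rpm, room temperature, then centrifuged. Both phases quantified by LCMS and logD calculated from the ratio.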

[4] = Determination of kinetic solubility (pH 7.4); type: physicochemical; settings: phosphate buffer, pH 7.4, aqueous buffer, kinetic from dmso stock, 50 mM phosphate buffer pH 7.4, read-out: Ksol, pH 7.4
Summary of the method: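 Sample mixed with 50 mM phosphate buffer, pH 7.4, vortexed, then shaken 2 h at room temperature and centrifuged. Filtrate analysed by HPLC-UV and LC-MS/MS, with solubility read from peak areas against a standard calibration curve.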

Sequence of KRAS G12C (GMPPNP-loaded) and cRAF (Ras-binding domain) interaction (P01116 other isoform, or with tags, fused parts or gaps G12C/C51S/C80L/C118S): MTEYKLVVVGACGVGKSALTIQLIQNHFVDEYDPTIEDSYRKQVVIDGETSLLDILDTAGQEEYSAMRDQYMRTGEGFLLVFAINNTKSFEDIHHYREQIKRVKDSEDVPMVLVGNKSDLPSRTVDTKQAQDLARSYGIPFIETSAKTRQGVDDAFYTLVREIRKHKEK
Sequence of KRAS G12C (GMPPNP-loaded) and PI3Ka (Ras-binding domain) interaction (P01116 other isoform, or with tags, fused parts or gaps G12C/C51S/C80L/C118S): as above

SMILES	pIC50 [1]	pIC50 [2]	logD [3]	solubility kinetic at 2 h [4]
N#CC[C@H]1CN(c2nc(OCC34CCCN3CCC4)nc3c2CCN(c2cccc4cccc(Cl)c24)C3)CCN1C(=O)/C=C/CN1CCSCC1 [Compound 171]	> 8.00	> 8.00	3.3	108 µg/mL (≈ 149 µM)
C[C@@H]1CN(C/C=C/C(=O)N2CCN(c3nc(OC[C@@]45CCCN4C[C@H](F)C5)nc4c(F)c(-c5cccc6cccc(Cl)c56)ncc34)C[C@@H]2CC#N)C[C@H](C)O1 [Compound 186]	7.00 to 8.00	7.00 to 8.00	3.54	89 µg/mL (≈ 115 µM)
C[C@H]1CN(C/C=C/C(=O)N2CCN(c3nc(OC[C@@]45CCCN4C[C@H](F)C5)nc4c(F)c(-c5cccc6cccc(Cl)c56)ncc34)C[C@@H]2CC#N)C[C@H](C)O1 [Compound 188]	> 8.00	> 8.00	3.86	79.1 µg/mL (≈ 103 µM)
N#CC[C@H]1CN(c2nc(OC[C@@]34CCCN3C[C@H](F)C4)nc3c(F)c(-c4cccc5cccc(Cl)c45)ncc23)CCN1C(=O)/C=C/CN1C2COCC1C2 [Compound 189]	> 8.00	> 8.00	2.96	109 µg/mL (≈ 144 µM)
CO[C@@H]1CCN(C/C=C/C(=O)N2CCN(c3nc(OC[C@@]45CCCN4C[C@H](F)C5)nc4c(F)c(-c5cccc6cccc(Cl)c56)ncc34)C[C@@H]2CC#N)C1 [Compound 191]	> 8.00	> 8.00	3.18	94.9 µg/mL (≈ 125 µM)
Cc1nsc(/C=C/C(=O)N2CCN(c3nc(OC[C@@]45CCCN4C[C@H](F)C5)nc4c3C[C@@H](C)[C@H](c3nc(N)cc(C)c3C(F)(F)F)C4)C[C@@H]2CC#N)n1 [Compound 192]	> 8.00	> 8.00	4.69	2.01 µg/mL (≈ 2.66 µM)
Cc1nccc(/C=C/C(=O)N2CCN(c3nc(OCC45CCCN4CCC5)nc4c3CCN(c3cccc5cccc(Cl)c35)C4)C[C@@H]2CC#N)n1 [Compound 202]	> 8.00	> 8.00	3.38	90.2 µg/mL (≈ 128 µM)
Cc1nccc(/C=C/C(=O)N2CCN(c3nc(OC[C@@]45CCCN4C[C@H](F)C5)nc4c(F)c(-c5cccc6ccccc56)ncc34)C[C@@H]2CC#N)n1 [Compound 215]	> 8.00	> 8.00	2.16	16.5 µg/mL (≈ 23.6 µM)
CO[C@H]1CCN(C/C=C/C(=O)N2CCN(c3nc(OC[C@@]45CCCN4C[C@H](F)C5)nc4c(F)c(-c5cccc6cccc(F)c56)ncc34)C[C@@H]2CC#N)C1 [Compound 222]	> 8.00	> 8.00	2.76	91.6 µg/mL (≈ 124 µM)
N#CC[C@H]1CN(c2nc(OC[C@@]34CCCN3C[C@H](F)C4)nc3c(F)c(-c4cccc5ccc(F)c(F)c45)ncc23)CCN1C(=O)/C=C/CN1C2COCC1C2 [Compound 224]	> 8.00	> 8.00	2.96	84.6 µg/mL (≈ 112 µM)
CCc1c(F)ccc2cccc(-c3ncc4c(N5CCN(C(=O)/C=C/CN6CCOCC6)[C@@H](CC#N)C5)nc(OC[C@@]56CCCN5C[C@H](F)C6)nc4c3F)c12 [Compound 226]	7.00 to 8.00	> 8.00	2.63	103 µg/mL (≈ 137 µM)
N#CC[C@H]1CN(c2nc(OC[C@@]34CCCN3C[C@H](F)C4)nc3c(F)c(-c4cccc5ccc(F)c(F)c45)ncc23)CCN1C(=O)/C=C/CN1CC2CC(C1)O2 [Compound 229]	> 8.00	> 8.00	1.63	69.9 µg/mL (≈ 92.3 µM)
N#CC[C@H]1CN(c2nc(OC[C@@]34CCCN3C[C@H](F)C4)nc3c(F)c(-c4cccc5ccc(F)c(F)c45)ncc23)CCN1C(=O)/C=C/CN1CCSCC1 [Compound 238]	> 8.00	> 8.00	3.48	21.3 µg/mL (≈ 28 µM)
N#CC[C@H]1CN(c2nc(OC[C@@]34CCCN3C[C@H](F)C4)nc3c(F)c(-c4cccc(Cl)c4C4CC4)ncc23)CCN1C(=O)/C=C/CN1CC2CC(C1)O2 [Compound 244]	> 8.00	7.00 to 8.00	3.13	121 µg/mL (≈ 163 µM)
C#Cc1c(F)ccc2cccc(-c3ncc4c(N5CCN(C(=O)/C=C/CN6CCOCC6)[C@@H](CC#N)C5)nc(OC[C@@]56CCCN5C[C@H](F)C6)nc4c3F)c12 [Compound 255]	> 8.00	> 8.00	2.81	118 µg/mL (≈ 158 µM)

Continued, values first:

pIC50 [1]	pIC50 [2]	logD [3]	solubility kinetic at 2 h [4]	SMILES
> 8.00	> 8.00	2.75	87.7 µg/mL (≈ 113 µM)	N#CC[C@H]1CN(c2nc(OC[C@@]34CCCN3C[C@H](F)C4)nc3c(F)c(-c4cccc5ccc(F)c(Cl)c45)ncc23)CCN1C(=O)/C=C/CN1CC2(COC2)C1 [Compound 161]
> 8.00	> 8.00	3.61	84 µg/mL (≈ 109 µM)	C[C@@H]1CN(C/C=C/C(=O)N2CCN(c3nc(OC[C@@]45CCCN4C[C@H](F)C5)nc4c(F)c(-c5cccc6cccc(Cl)c56)ncc34)C[C@@H]2CC#N)C[C@@H](C)O1 [Compound 187]
> 8.00	> 8.00	2.86	94.7 µg/mL (≈ 125 µM)	CO[C@H]1CCN(C/C=C/C(=O)N2CCN(c3nc(OC[C@@]45CCCN4C[C@H](F)C5)nc4c(F)c(-c5cccc6cccc(Cl)c56)ncc34)C[C@@H]2CC#N)C1 [Compound 190]
> 8.00	> 8.00	4.2	0.01 µg/mL (≈ 0.0128 µM)	N#CC[C@H]1CN(c2nc(OC[C@@]34CCCN3C[C@H](F)C4)nc3c(F)c(-c4cccc5ccc(F)c(Cl)c45)ncc23)CCN1C(=O)/C=C/c1ccnc(C2CC2)n1 [Compound 208]
7.00 to 8.00	> 8.00	4.02	6.14 µg/mL (≈ 8.37 µM)	Cc1cc(/C=C/C(=O)N2CCN(c3nc(OC[C@@]45CCCN4C[C@H](F)C5)nc4c(F)c(-c5cccc6cccc(F)c56)ncc34)C[C@@H]2CC#N)nc(C)n1 [Compound 214]
> 8.00	> 8.00	2.01	99.9 µg/mL (≈ 132 µM)	CO[C@H]1CCN(C/C=C/C(=O)N2CCN(c3nc(OC[C@@]45CCCN4C[C@H](F)C5)nc4c(F)c(-c5cccc6ccc(F)c(F)c56)ncc34)C[C@@H]2CC#N)C1 [Compound 217]
> 8.00	> 8.00	2.54	56.4 µg/mL (≈ 74.6 µM)	N#CC[C@H]1CN(c2nc(OC[C@@]34CCCN3C[C@H](F)C4)nc3c(F)c(-c4cccc5ccc(F)c(F)c45)ncc23)CCN1C(=O)/C=C/CN1C[C@H]2C[C@@H]1CO2 [Compound 218]
> 8.00	> 8.00	3	118 µg/mL (≈ 153 µM)	N#CC[C@H]1CN(c2nc(OC[C@@]34CCCN3C[C@H](F)C4)nc3c(F)c(-c4cccc5ccc(F)c(F)c45)ncc23)CCN1C(=O)/C=C/CN1C[C@H]2COC[C@H]2C1 [Compound 223]
> 8.00	> 8.00	3.08	94.8 µg/mL (≈ 123 µM)	N#CC[C@H]1CN(c2nc(OC[C@@]34CCCN3C[C@H](F)C4)nc3c(F)c(-c4cccc5cccc(Cl)c45)ncc23)CCN1C(=O)/C=C/CN1C[C@H]2COC[C@H]2C1 [Compound 228]
> 8.00	> 8.00	2.85	91 µg/mL (≈ 122 µM)	N#CC[C@H]1CN(c2nc(OC[C@@]34CCCN3C[C@H](F)C4)nc3c(F)c(-c4cccc(Cl)c4C4CC4)ncc23)CCN1C(=O)/C=C/CN1C[C@@H]2C[C@H]1CO2 [Compound 277]

Source: patent US20250129103A1, “METHODS FOR TREATMENT OF CANCER” (Frontier Medicines Corporation, priority 2022, published 2025)
